From patent US20260042816A1, “TYROSINE KINASE INHIBITOR AND ACTIVIN TYPE 2 RECEPTOR ANTAGONIST COMBINATION THERAPY FOR TREATING PULMONARY ARTERIAL HYPERTENSION (PAH)” (GB002, INC., priority 2022, published 2026)

Experiments:
[1] = system: SuHx-mediated (SU5416 plus hypoxia) pulmonary hypertension; test: SuHx (SU5416 plus hypoxia) rat model of PAH; format: in vivo, male Sprague Dawley rats; settings: for decrease in Fulton's Index (RV hypertrophy measurement) / decrease in PVR Index / decrease in RVSP / decrease in mPAP: normalized to vehicle (1) and normal controls (0), day 49, after 4 weeks of treatment, Seralutinib 15 mg/kg inhalation BID and/or Sotatercept (as RAP-011) 5 mg/kg SC 2x/week; for lung histology (hematoxylin and eosin), pulmonary vessels: representative images, FIG. 2
Procedure: PAH was induced in animal by a administering a single injection SU5416 (20 mg/kg) on day 0, followed by exposure of animals to hypoxia (10% oxygen) for 21 days. SuHx rats were divided in four groups and treated with i) Control: Seralutinib vehicle inhalation+Sotatercept vehicle injection (grey bar) or ii) Seralutinib 15 mg/kg, by inhalation, twice daily+Sotatercept vehicle, subcutaneous injection, twice a week (bar with horizontal pattern) or iii) Sotatercept 5 mg/kg subcutaneous injection, twice a week+Seralutinib vehicle, by inhalation, twice daily (bar with vertical line pattern) or iv) Seralutinib 15 mg/kg, by inhalation, twice daily+Sotatercept 5 mg/kg subcutaneous injection, twice a week (white bar); normoxia animals were used a healthy controls. Bar graph showing individual normalized data point for (A) Right ventricular systolic pressure (RVSP) (FIG. 1A), (B) mean pulmonary artery pressure (mPAP) (FIG. 1B), (C) right ventricular hypertrophy measured by fulton's index (FIG. 1C), and PVR index (FIG. 1D).
SuHx-mediated (SU5416 plus hypoxia) pulmonary hypertension was induced in male Sprague Dawley rats (see “Inhibition of the VEGF receptor 2 combined with chronic hypoxia causes cell death-dependent pulmonary endothelial cell proliferation and severe pulmonary hypertension”, Taraseviciene-Stewart et. al., FASEB J, 2001, 15, 427-438 and “TORREY, a Phase 2 study to evaluate the efficacy and safety of inhaled seralutinib for the treatment of pulmonary arterial hypertension”, Frantz R P, et. al., Pulmonary Circulation 2021; 11(4), 1-7). Semaxanib (SU5416) was administered to rats weighing 200-250 g as a single subcutaneous injection (20 mg/kg). Rats were housed for 3 weeks in 10% oxygen and subsequently re-exposed to normoxia during 4-week treatment period.
Rats underwent treatment for four weeks as described above, with treatment starting on day 22, after disease induction. After 4 weeks of treatment, the following parameters were evaluated: right ventricular systolic pressure (RVSP); Fulton index (weight ratio of right ventricle to the left ventricle and septum); and mean pulmonary arterial pressure (mPAP).
Animals from (Group 2-5) received a single subcutaneous injection of SU5416 (20 mg/kg) on Day 0 and exposed to hypoxia (10% O2) for 21 days followed by 4 weeks of normoxia. Group 1 animals (healthy group) remained in cages exposed to ambient oxygen (normoxic) levels for 49 days. Food and water were given ad libitum.
Treatment with inhaled seralutinib or vehicle, RAP-011 or mIgG2A was as described in Table 2.
Briefly, treatment with the aerosolized Seralutinib or vehicle was administrated for 45 minutes BID for 4 weeks starting day 22 (as outlined in Table 1) at an estimated dose to 15 mg/kg/dose using a Vilnius Aerosol Generator connected to an inhalation tower. The powder concentration was continuously monitored by portable aerosol monitor. Mercer-style cascade impactor was used to perform aerodynamic particle size distribution measurements. RAP-011 or mIgG was administered at 5 mg/kg dose via SC injection twice a week for 4 weeks starting day 22 as described in Table 2.
An echocardiogram monitoring of the progression of the disease was carried out on Day 21 (before treatment) and on surgery day (Day 49) for all groups. The results of the echocardiogram, from Day 21, was used to randomize the animals to ensure that only animals with severe enough disease are selected and that there is a similar disease stage across all groups.
On day 49, after 4 weeks of treatment, end of study procedures was performed: mean pulmonary arterial pressure (mPAP) and right ventricle systolic pressure (RVSP) were measured via an intra-ventricular fluid-filled catheter from AD instruments. Mean pulmonary arterial blood pressure values by using the formula mPAP=Diastolic Pressure+(Systolic Pressure−Diastolic Pressure)/3.

[2] = system: severe PAH in two animal models; settings: cited from earlier work
PAH patients = settings: patients treated with standard-of-care therapies; cited from earlier work

Row | Molecule | decrease in Fulton's Index (RV hypertrophy measurement) [1] [%] | decrease in PVR Index [1] [%] | decrease in RVSP [1] [%] | decrease in mPAP [1] [%] | lung histology (hematoxylin and eosin), pulmonary vessels [1] | efficacy compared to imatinib ([2]; preclinical study) | efficacy of inhaled seralutinib in animal models of severe PAH ([2]; two animal models, improved hemodynamics, reduced NT-proBNP, reverse remodeling) | clinical effect in PAH patients (PAH patients)
1 | COc1ccc(-c2cncc(N[C@@H](C)c3cccc(NC(=O)c4cncc(C)c4)c3)n2)cc1OC [Seralutinib, N-{3-[(1S)-1-{[6-(3,4-dimethoxyphenyl)pyrazin-2-yl]amino}ethyl]phenyl}-5-methylpyridine-3-carboxamide] | 9 | 26 | 13 | 23 | non-occluded pulmonary vessels similar to the healthy group | greater efficacy compared to imatinib | effective treatment of severe PAH | –
2 | Sotatercept: soluble fusion protein composed of the extracellular domain of the activin receptor type IIA (ActR IIA) linked to the Fc portion of human IgG1 [reference compound] | 15 | 25 | 31 | 28 | non-occluded pulmonary vessels similar to the healthy group | – | – | beneficial effects
